Laboratory results published in ChEMBL document CHEMBL5260852, “Long-Acting Tumor-Activated Prodrug of a TGFβR Inhibitor” (J Med Chem, 2021).
Numbered stars: 1 amine (or outer) side, 2 acyl side, 3 side chain; on linkers, the order of the positions; unused ones are H or OH. Square brackets hold non-standard residues; d marks the D form. Peptide text beside a SMILES is read from it. * marks the point of attachment. X1 = N#Cc1cnc2ccc(-c3c(-c4ccc(F)c(Cl)c4)ncn3CCOCN*)nn12; C18 diacid = O=C(O)CCCCCCCCCCCCCCCCC(=O)*; C16 diacid = O=C(O)CCCCCCCCCCCCCCC(=O)*; γGlu = O=C(O)[C@H](CCC(=O)[*:2])N[*:1]; PABC = O=C(OCc1ccc(N[*:1])cc1)[*:2]; Palmitoyl = CCCCCCCCCCCCCCCC(=O)*; AEEA = NCCOCCOCC(=O)O

How the values were obtained:
[1] = Drug concentration in C57BL/6 mouse plasma at 6 mg/kg,iv and measured after 24 hrs by LC-MS/MS analysis; format: ADME, organism-based
[2] = Stability in mouse plasma assessed as parent compound remaining after 24 hrs by HPLC-MS analysis; format: ADME, cell-free; settings: read-out: Stability
[3] = Stability in rat plasma assessed as parent compound remaining after 24 hrs by HPLC-MS analysis; format: ADME, cell-free; settings: read-out: Stability
[4] = AUC in C57BL/6 mouse plasma at 6 mg/kg,iv and measured upto 24 hrs by LC-MS/MS analysis; format: ADME, organism-based; parameters: dose 6 mg/kg, time < 24 hrs, route iv

| SMILES | concentration at 24 h [1] [µM] | remaining at 24 h [2] [%] | remaining at 24 h [3] [%] | AUC at 24 h [4] [µM·h] |
| --- | --- | --- | --- | --- |
| CC(C)C[C@H](NC(=O)CC[C@H](NC(=O)CCCCCCCCCCCCCCCCC(=O)O)C(=O)O)C(=O)N[C@@H](CO)C(=O)NCC(=O)N[C@@H](CCCCN)C(=O)Nc1ccc(COC(=O)NCOCCn2cnc(-c3ccc(F)c(Cl)c3)c2-c2ccc3ncc(C#N)n3n2)cc1 ({C18 diacid-γGlu}-LSGK[PABC]-X1) | > 1 | 84 | 77 | – |
| CCCCCCCCCCCCCCCC(=O)N[C@@H](CCC(=O)N[C@@H](CC(C)C)C(=O)N[C@@H](CO)C(=O)NCC(=O)N[C@@H](CCCCN)C(=O)Nc1ccc(COC(=O)NCOCCn2cnc(-c3ccc(F)c(Cl)c3)c2-c2ccc3ncc(C#N)n3n2)cc1)C(=O)O ({Palmitoyl-γGlu}-LSGK[PABC]-X1) | – | – | – | 40.9 |
| CC(=O)N[C@@H](CC(C)C)C(=O)N[C@@H](CO)C(=O)NCC(=O)N[C@@H](CCCCN)C(=O)Nc1ccc(COC(=O)NCOCCn2cnc(-c3ccc(F)c(Cl)c3)c2-c2ccc3ncc(C#N)n3n2)cc1 (Ac-LSGK[PABC]-X1) | – | 6 | – | – |
| CC(C)C[C@H](NC(=O)COCCOCCNC(=O)CC[C@H](NC(=O)CCCCCCCCCCCCCCCCC(=O)O)C(=O)O)C(=O)N[C@@H](CO)C(=O)NCC(=O)N[C@@H](CCCCN)C(=O)Nc1ccc(COC(=O)NCOCCn2cnc(-c3ccc(F)c(Cl)c3)c2-c2ccc3ncc(C#N)n3n2)cc1 ({C18 diacid-γGlu-AEEA}-LSGK[PABC]-X1) | > 1 | 79 | 81 | – |
| CC(C)C[C@H](NC(=O)COCCOCCNC(=O)COCCOCCNC(=O)CC[C@H](NC(=O)CCCCCCCCCCCCCCC(=O)O)C(=O)O)C(=O)N[C@@H](CO)C(=O)NCC(=O)N[C@@H](CCCCN)C(=O)Nc1ccc(COC(=O)NCOCCn2cnc(-c3ccc(F)c(Cl)c3)c2-c2ccc3ncc(C#N)n3n2)cc1 ({C16 diacid-γGlu-AEEA-AEEA}-LSGK[PABC]-X1) | – | 54 | – | – |
| CC(C)C[C@H](NC(=O)COCCOCCNC(=O)COCCOCCNC(=O)COCCOCCNC(=O)CC[C@H](NC(=O)CCCCCCCCCCCCCCCCC(=O)O)C(=O)O)C(=O)N[C@@H](CO)C(=O)NCC(=O)N[C@@H](CCCCN)C(=O)Nc1ccc(COC(=O)NCOCCn2cnc(-c3ccc(F)c(Cl)c3)c2-c2ccc3ncc(C#N)n3n2)cc1 ({C18 diacid-γGlu-AEEA-AEEA-AEEA}-LSGK[PABC]-X1) | 5.2 | 91 | 76 | 270 |
